In ChEMBL document CHEMBL4261572, “Design, synthesis and biological evaluation of tacrine-1,2,3-triazole derivatives as potent cholinesterase inhibitors” (Medchemcomm, 2018):

Experiments:
Acetylcholinesterase [1] = target: Acetylcholinesterase (Electrophorus electricus, UniProt O42275); test: Inhibition of electric eel AChE after 15 mins by DTNB reagent based assay
Cholinesterase [2] = target: Cholinesterase (Equus caballus, UniProt P81908); test: Inhibition of horse serum BChE after 15 mins by DTNB reagent based assay
Sequence of Cholinesterase (Equus caballus, UniProt P81908) (P81908 whole entry): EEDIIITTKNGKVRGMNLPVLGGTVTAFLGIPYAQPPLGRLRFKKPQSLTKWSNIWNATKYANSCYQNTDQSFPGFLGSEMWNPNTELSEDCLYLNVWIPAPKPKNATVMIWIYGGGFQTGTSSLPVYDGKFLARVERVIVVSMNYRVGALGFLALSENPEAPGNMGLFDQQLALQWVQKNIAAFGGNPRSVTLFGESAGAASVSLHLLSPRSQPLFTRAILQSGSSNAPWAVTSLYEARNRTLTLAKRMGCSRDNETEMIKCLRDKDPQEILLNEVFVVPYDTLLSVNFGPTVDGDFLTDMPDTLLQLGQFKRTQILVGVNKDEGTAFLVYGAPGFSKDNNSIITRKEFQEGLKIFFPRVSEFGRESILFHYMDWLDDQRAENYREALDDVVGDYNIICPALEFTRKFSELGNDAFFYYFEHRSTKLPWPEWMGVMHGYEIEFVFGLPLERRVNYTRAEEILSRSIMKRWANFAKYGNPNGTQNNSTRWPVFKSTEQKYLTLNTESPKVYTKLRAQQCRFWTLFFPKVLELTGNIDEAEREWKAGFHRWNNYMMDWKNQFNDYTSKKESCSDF

[3] = Selectivity ratio of compound effect for inhibition of horse serum BChE to compound effect for inhibition of electric eel AChE
Acetylcholinesterase [4] = target: T1, Acetylcholinesterase (Rattus norvegicus, UniProt P37136); test: Inhibition of rat brain AChE
T1 sequence (P37136 whole entry): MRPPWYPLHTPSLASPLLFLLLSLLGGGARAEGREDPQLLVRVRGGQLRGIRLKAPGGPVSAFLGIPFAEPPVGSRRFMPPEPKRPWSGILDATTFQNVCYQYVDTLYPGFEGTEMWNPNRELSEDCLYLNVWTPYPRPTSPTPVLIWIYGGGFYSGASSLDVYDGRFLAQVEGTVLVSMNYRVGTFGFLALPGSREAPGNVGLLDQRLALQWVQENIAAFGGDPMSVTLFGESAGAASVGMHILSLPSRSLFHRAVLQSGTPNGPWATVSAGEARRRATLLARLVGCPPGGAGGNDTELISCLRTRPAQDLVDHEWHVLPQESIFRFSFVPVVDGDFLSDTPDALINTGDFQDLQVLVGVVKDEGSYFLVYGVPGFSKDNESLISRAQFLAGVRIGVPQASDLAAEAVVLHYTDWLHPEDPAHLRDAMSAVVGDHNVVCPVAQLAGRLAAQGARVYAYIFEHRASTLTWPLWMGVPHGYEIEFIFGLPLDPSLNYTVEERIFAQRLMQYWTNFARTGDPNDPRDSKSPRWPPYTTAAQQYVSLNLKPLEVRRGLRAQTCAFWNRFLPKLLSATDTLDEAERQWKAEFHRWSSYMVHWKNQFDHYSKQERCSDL

Butyrylcholinesterase = Butyrylcholinesterase (Rattus norvegicus, UniProt Q9JKC1); test: Inhibition of rat serum BChE using butyrylthiocholine iodide as substrate measured after 8 mins in presence of AChE inhibitor BW284c51 by Ellman's method
Sequence of Butyrylcholinesterase (Q9JKC1 whole entry): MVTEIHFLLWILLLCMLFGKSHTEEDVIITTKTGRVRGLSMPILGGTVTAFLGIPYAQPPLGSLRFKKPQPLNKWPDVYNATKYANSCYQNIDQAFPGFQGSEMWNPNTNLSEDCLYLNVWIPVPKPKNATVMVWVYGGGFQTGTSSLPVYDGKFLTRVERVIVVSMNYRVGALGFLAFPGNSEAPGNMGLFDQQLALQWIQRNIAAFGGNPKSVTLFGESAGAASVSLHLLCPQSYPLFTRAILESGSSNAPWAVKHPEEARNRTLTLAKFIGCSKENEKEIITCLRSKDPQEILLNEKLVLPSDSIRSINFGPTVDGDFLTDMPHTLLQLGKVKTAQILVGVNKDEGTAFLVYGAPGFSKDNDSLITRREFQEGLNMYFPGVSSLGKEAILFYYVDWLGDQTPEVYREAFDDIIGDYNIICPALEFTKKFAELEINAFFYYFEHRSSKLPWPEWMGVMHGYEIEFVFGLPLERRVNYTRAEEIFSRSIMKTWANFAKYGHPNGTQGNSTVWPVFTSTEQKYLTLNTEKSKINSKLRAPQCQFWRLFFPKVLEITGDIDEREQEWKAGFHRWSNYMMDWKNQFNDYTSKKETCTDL

Acetylcholinesterase [5] = target: T1, Acetylcholinesterase; test: Inhibition of rat brain AChE using acetylthiocholine iodide as substrate measured after 8 mins in presence of BChE inhibitor ethopropazine by Ellman's method
Cholinesterase [6] = target: Cholinesterase (Homo sapiens, UniProt P06276); test: Inhibition of BChE (unknown origin)
Sequence of Cholinesterase (Homo sapiens, UniProt P06276) (P06276 whole entry): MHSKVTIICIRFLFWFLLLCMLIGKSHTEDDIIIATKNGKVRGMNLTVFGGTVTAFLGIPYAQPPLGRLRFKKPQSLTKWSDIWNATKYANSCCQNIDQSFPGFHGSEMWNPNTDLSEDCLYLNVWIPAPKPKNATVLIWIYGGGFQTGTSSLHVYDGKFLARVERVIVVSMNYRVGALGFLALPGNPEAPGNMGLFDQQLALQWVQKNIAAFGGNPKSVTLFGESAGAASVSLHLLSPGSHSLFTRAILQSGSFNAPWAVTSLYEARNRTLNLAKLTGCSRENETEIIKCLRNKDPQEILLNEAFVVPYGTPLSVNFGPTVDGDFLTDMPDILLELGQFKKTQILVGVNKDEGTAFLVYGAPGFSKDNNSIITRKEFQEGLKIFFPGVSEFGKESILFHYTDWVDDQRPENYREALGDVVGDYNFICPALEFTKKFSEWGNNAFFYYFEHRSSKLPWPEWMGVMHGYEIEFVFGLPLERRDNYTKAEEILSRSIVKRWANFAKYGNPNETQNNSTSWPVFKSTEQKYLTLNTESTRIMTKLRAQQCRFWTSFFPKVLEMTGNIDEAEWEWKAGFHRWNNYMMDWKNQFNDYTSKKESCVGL

Acetylcholinesterase [7] = target: Acetylcholinesterase (Homo sapiens, UniProt P22303); test: Inhibition of AChE (unknown origin)
Sequence of Acetylcholinesterase (Homo sapiens, UniProt P22303) (P22303 whole entry): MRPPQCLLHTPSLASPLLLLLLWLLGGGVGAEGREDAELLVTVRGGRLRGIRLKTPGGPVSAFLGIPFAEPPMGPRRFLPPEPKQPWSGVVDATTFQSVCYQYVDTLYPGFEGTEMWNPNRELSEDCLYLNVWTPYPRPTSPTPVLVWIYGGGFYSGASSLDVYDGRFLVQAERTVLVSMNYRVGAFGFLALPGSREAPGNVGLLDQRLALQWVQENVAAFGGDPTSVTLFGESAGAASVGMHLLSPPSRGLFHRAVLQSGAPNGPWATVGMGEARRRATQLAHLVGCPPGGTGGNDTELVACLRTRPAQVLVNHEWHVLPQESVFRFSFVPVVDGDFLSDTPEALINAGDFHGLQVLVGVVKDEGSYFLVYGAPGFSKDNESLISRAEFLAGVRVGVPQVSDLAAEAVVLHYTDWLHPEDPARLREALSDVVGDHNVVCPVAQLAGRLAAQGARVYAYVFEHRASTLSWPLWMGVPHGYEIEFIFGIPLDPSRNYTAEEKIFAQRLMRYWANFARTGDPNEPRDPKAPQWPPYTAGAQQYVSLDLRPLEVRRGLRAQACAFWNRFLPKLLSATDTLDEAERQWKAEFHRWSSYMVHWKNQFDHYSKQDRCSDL

Sequence of Acetylcholinesterase (Electrophorus electricus, UniProt O42275) (O42275 whole entry): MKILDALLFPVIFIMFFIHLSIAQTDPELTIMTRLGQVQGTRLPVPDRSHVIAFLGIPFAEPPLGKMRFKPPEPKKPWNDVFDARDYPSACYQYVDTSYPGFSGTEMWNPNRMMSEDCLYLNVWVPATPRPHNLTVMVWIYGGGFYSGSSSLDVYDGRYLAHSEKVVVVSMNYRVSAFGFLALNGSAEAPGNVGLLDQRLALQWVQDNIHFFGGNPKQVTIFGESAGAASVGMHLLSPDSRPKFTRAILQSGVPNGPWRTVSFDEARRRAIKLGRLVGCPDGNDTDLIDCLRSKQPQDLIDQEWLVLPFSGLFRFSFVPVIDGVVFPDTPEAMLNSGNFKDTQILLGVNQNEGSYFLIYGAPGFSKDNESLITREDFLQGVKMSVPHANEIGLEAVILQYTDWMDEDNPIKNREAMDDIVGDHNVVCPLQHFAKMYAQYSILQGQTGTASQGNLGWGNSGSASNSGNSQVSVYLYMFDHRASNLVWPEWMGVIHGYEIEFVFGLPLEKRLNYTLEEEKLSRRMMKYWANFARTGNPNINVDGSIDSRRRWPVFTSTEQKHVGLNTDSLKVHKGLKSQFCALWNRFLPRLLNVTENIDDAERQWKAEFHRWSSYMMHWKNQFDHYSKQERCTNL

SMILES	IC50 (Acetylcholinesterase [1]) [µM]	IC50 (Cholinesterase [2]) [µM]	further results
Clc1ccc2c(-n3cc(CCCCN4CCN(c5c6c(nc7cc(Cl)ccc57)CCCC6)CC4)nn3)ccnc2c1	19.6	> 100	
Clc1ccc2c(-n3cc(CCCN4CCN(c5c6c(nc7ccccc57)CCCC6)CC4)nn3)ccnc2c1	4.89	3.61	
O=C(CCCCc1cn(-c2ccnc3cc(Cl)ccc23)nn1)NCCNc1c2c(nc3cc(Cl)ccc13)CCCC2	> 100	6.06	Selectivity ratio [3]: 2
C#CCN(C)Cc1ccc(OC(=O)N(C)C)c2ncccc12			IC50 (Acetylcholinesterase [4]): 0.5 µM
CN(CCCC(=O)N1CCN(c2c3c(nc4ccccc24)CCCC3)CC1)Cc1cn(-c2ccnc3cc(Cl)ccc23)nn1	> 100	61.1	
C1=CCc2c(nc3ccccc3c2NCCCCCCCCNc2ccnc3ccccc23)C1			IC50 (Butyrylcholinesterase): 0.126 µM; IC50 (Acetylcholinesterase [5]): 0.0088 µM
O=C(CCCCc1cn(-c2ccnc3cc(Cl)ccc23)nn1)N1CCN(c2c3c(nc4ccccc24)CCCC3)CC1	11.1	> 100	
CCN(CC)c1ccc(/C=C/c2cc(N3CCCCC3)c3ccccc3n2)cc1			IC50 (Cholinesterase [6]): 0.2 µM; IC50 (Acetylcholinesterase [7]): 64.1 µM
Clc1ccc2c(-n3cc(CCCCN4CCN(c5c6c(nc7ccccc57)CCCC6)CC4)nn3)ccnc2c1	10	66.7	
O=C(CCCCc1cn(-c2ccnc3cc(Cl)ccc23)nn1)N1CCN(c2c3c(nc4cc(Cl)ccc24)CCCC3)CC1	18.7	> 100	
